What was measured:
[1] = test system: DNBS-induced distal colitis; assay: Dinitrobenzene sulfonic acid-induced inflammatory bowel syndrome model rats; assay type: in vivo, Wistar derived rats; conditions: oral, 24 and 2 h before DNBS, then daily for 5 days; relative to vehicle+DNBS net increase
Experimental: Treatment of Crohn's disease in dinitrobenzene suifonic acid-induced inflammatory bowel syndrome model rats: Wistar derived male or female rats weighing 200±20 g and fasted for 24 hours were used. Distal colitis was induced by intra-colonic instillation of 2,4-dinitrobenzene sulfonic acid (DNBS, 25 mg in 0.5 mL ethanol 30%) after which air (2 mL) was gently injected through the cannula to ensure that the solution remained in the colon. A test compound and/or vehicle was administered orally 24 and 2 hours before DNBS instillation and then daily for 5 days. One control group was similarly treated with vehicle alone while the other is treated with vehicle plus DNBS. The animals were sacrificed 24 hours after the final dose of test compound administration and each colon was removed and weighed. Colon-to-body weight ratio was then calculated for each animal according to the formula: Colon (g)/BW×100. The “Net” increase in ratio of Vehicle-control+DNBS group relative to Vehicle-control group was used as a base for comparison with test substance treated groups and expressed as “% Deduction.” Pyriridine compounds of this invention (e.g., Compound 12) reproducibly had about 30% deduction. A 30% or more reduction in colon-to-body weight ratio, relative to the vehicle treated eontrol group, was considered significant.

adjuvant arthritis = assay: Treatment of adjuvant arthritis in rats; assay type: in vivo, female Lewis rats; conditions: oral, once a day for 12 days, dose-dependent
[2] = test system: CD4+ CD45Rbhigh T cell-reconstituted colitis; assay: CD4+ CD45Rbhigh T cell-reconstituted SCID colitis model mice; assay type: in vivo, C.B-17 SCID mice
Experimental: Treatment of Crohn's disease in CD4^+ CD45Rb^high T cell-reconstituted SCID colitis model mice: Spleen cells were prepared from normal female BALB/c mice. For cell purification, the following anti-mouse antibodies were used to label non-CD4^+ T cells: B220 (RA3-6B2), CD11b (M1/70), and CD8α (53-6.72). All antibodies were obtained from BioSource (Camarillo, Calif.). M450 anti-rat IgG-coated magnetic beads (Dynal, Oslo, Norway) were used to bind the antibodies and negative selection was accomplished using an MPC-1 magnetic concentrator. The enriched CD4^+ cells were then labeled for cell sorting with FITC-conjugated CD45RB (16A, Pharmingen, San Diego, Calif.) and PE-conjugated CD4 (CT-CD4, Caltag, Burlingame, Calif.). CD4^+ CD45Rb^high cells were operationally defined as the upper 40% of CD45Rb-staining CD4^+ cells and sorted under sterile conditions by flow cytometry. Harvested cells were resuspended at 4×10^6/mL in PBS and injected 100 μL intraperitoneally into female C.B-17 SCID mice. Pyrimidine compounds of this invention (e.g., Compound 12) and/or vehicle was orally administered once a day, 5 days per week, starting the day following the transfer. The transplanted SCID mice were weighed weekly and their clinical condition was monitored. Colon tissue samples were fixed in 10% buffered formalin and embedded in paraffin. Sections (4 μm) collected from ascending, transverse, and descending colon were cut and stained with hematoxylin and eosin. The severity of colitis was determined based on histological examination of the distal colon sections, whereby the extent of colonic inflammation was graded on a scale of 0-3 in each of four criteria: crypt elongation, cell infiltration, depletion of goblet cells, and the number of crypt abscesses. LP lymphocytes were isolated from freshly obtained colonic specimens. After removal of […] patches, the colon was washed in Ca/Mg-free HBSS, cut into 0.5 cm pieces and incubated twice in HBSS containing EDTA (0.75 mM), DTT (1 mM), and antibiotics (amphotericin 2.5 μg/mL, gentamicin 50 μg/mL from Sigma) at 37° C. for 15 min. Next, the tissue was-digested further in RPMI containing 0.5 mg/mL collagenase D, 0.01 mg/mL DNase I (Boehringer Manheim), and antibiotics at 37° C. LP cells were then layered on a 40-100% Percoll gradient (Pharmacia, Uppsala, Sweden), and lymphocyte-enriched populations were isolated from the cells at the 40-100% interface. To measure cytokine production, 48-well plates were coated with 10 μg/mL murine anti-CD3ε antibody (145-2C11) in carbonate buffer (PH 9.6) overnight at 4° C. […] Murine IFNγ was measured using an ELISA kit from Endogen (Cambridge, Mass.), according to the manufacturer's instructions.

Cc1cccc(C=NNc2cc(N3CCOCC3)nc(OCCc3ccccn3)n2)c1 [Compound 12, N-(3-methyl-benzylidene)-N′-[6-morpholin-4-yl-2-(2-pyridin-2-yl-ethoxy)-pyrimidin-4-yl]-hydrazine]
% Deduction (colon-to-body weight ratio) [1]: about 30% | development of polyarthritis (adjuvant arthritis): delayed the development of polyarthritis | arthritic score (adjuvant arthritis; repeated four times): reduced the arthritic score | IFNγ production by LP cells ([2]; ex vivo LP cells from treated mice, anti-CD3 and anti-CD28 antibody, 48 h, ELISA): greatly diminished the production | colonic inflammation (histological analysis), suppressive effect ([2]; oral, dose of 10 mg/kg): substantial reduction | colonic inflammation (histological analysis) ([2]; oral, once a day, 5 days per week, versus vehicle control): reduced colonic inflammation | colon-to-body weight ratio ([2]; oral, consistent with histological score): attenuation

— US7465725B2, “Pyrimidine compounds” (Synta Pharmaceuticals Corp., priority 2001, dated 2008)
